Laboratory results reported in patent publication US10722514B2 (FLX Bio, Inc., priority 2017, dated 2020).
Counter-ions that a name gives are not always drawn.

target: T1, recombinant full-length USP7 (Homo sapiens, UniProt Q93009); test: USP7-mediated ubiquitin-rhodamine cleavage assay; format: biochemical; details: recombinant full-length USP7 62 pM; ubiquitin-rhodamine 100 nM; 30-minute incubation with compound, 1 hour reaction at room temperature; read-out: Potency: USP7 IC50
T1 construct: A 25 μl reaction volume containing recombinant full-length USP7 (62 pM)
Outline: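 USP7 (62 pM) in 20 mM HEPES pH 7.3, 150 mM NaCl, 1 mM TCEP, 125 μg/ml BSA was preincubated with compound (1% DMSO) for 30 min at room temperature. Ubiquitin-rhodamine (100 nM final) was then added for 1 hour, the reaction stopped with acetic acid, and fluorescence read; IC50 from 4-parameter fit.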

T1 sequence (Q93009 whole entry): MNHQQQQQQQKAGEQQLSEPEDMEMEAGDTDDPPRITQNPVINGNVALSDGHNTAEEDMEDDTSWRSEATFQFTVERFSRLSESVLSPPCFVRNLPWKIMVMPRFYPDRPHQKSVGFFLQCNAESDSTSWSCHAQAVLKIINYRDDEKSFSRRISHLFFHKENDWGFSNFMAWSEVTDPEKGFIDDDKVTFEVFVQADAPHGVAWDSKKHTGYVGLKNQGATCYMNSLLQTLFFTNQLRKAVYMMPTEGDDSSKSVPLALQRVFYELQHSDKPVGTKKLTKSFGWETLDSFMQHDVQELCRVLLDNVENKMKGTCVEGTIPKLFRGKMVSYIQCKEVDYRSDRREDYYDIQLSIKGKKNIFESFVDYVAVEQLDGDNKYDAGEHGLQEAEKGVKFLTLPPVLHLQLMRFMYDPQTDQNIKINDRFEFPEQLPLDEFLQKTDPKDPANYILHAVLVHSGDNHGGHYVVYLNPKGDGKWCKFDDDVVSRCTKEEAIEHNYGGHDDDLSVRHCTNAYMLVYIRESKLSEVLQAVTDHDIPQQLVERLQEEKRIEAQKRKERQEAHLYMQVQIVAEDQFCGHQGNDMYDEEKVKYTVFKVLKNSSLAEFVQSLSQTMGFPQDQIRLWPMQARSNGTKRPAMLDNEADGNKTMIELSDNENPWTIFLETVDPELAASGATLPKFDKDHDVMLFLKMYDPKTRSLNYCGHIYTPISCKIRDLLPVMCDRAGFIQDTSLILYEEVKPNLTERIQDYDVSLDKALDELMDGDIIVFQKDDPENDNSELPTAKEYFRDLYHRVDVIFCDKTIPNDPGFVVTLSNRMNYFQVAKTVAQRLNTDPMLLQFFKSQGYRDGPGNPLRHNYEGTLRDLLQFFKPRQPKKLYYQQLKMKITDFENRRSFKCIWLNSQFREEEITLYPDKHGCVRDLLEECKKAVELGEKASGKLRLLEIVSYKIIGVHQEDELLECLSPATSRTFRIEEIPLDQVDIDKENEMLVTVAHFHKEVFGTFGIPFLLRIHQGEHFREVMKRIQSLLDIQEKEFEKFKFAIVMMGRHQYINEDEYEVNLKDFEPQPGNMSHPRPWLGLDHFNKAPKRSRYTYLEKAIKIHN

Molecule	IC50
Cc1cc(Cl)cc(-c2ccnc3cc(CN4C(=O)CCC4=O)sc23)c1OC1CCNC1C (stereo not shown) [Example 118, 1-((7-(5-Chloro-3-methyl-2-((2-methylpyrrolidin-3-yl)oxy)phenyl)thieno[3,2-b]pyridin-2-yl)methyl)pyrrolidine-2,5-dione]	< 1000 nM
CN[C@@H]1CC[C@@H](Oc2c(C)cc(Cl)cc2-c2ccnc3cc(CN4C(=O)CCC4=O)sc23)C1 [Example 53, 1-((7-(5-Chloro-3-methyl-2-(((1R,3R)-3-(methylamino)cyclopentyl)oxy)phenyl)thieno[3,2-b]pyridin-2-yl)methyl)pyrrolidine-2,5-dione]	< 1000 nM
Cc1cc(Cl)cc(-c2ccnc3cc(CO)sc23)c1OC1CC2(CNC2)C1 [Example 48, (7-(2-((2-Azaspiro[3.3]heptan-6-yl)oxy)-5-chloro-3-methylphenyl)thieno[3,2-b]pyridin-2-yl)methanol]	10000 to 30000 nM
Cc1cc(Cl)cc(-c2ccnc3cc(CN4C(=O)C5C(C4=O)C5(C)C)sc23)c1O[C@H]1CC[C@H](C)NC1 (stereo partly drawn) [Example 399, 3-[[7-[5-chloro-3-methyl-2-[[(3S,6S)-6-methyl-3-piperidyl]oxy]phenyl]thieno[3,2-b]pyridin-2-yl]methyl]-6,6-dimethyl-3-azabicycllo[3.1.0]hexane-2,4-dione; 2,2,2-trifluoroacetic acid]	< 1000 nM
Cc1cc(Cl)cc(-c2ccnc3cc(CN4C(=O)C5CCCCN5C4=O)sc23)c1OC1CCNCC1 (stereo not shown) [Example 228, 2-((7-(5-Chloro-3-methyl-2-(piperidin-4-yloxy)phenyl)thieno[3,2-b]pyridin-2-yl)methyl)tetrahydroimidazo[1,5-a]pyridine-1,3(2H,5H)-dione]	< 1000 nM
Cc1cc(Cl)cc(-c2ccnc3cc(CO)sc23)c1O[C@@H]1CN[C@@H](C)C1 [Example 60, (7-(5-Chloro-3-methyl-2-(((3S,5S)-5-methylpyrrolidin-3-yl)oxy)phenyl)thieno[3,2-b]pyridin-2-yl)methanol]	10000 to 30000 nM
2-((4-(5-Chloro-3-methyl-2-(piperidin-4-yloxy)phenyl)thieno[3,2-d]pyrimidin-6-yl)methyl)tetrahydrocyclopenta[c]pyrrole-1,3(2H,3aH)-dione [Example 178]	< 1000 nM
Cc1cc(C(=O)O)cc(-c2ccnc3cc(Cn4c(=O)ccn(CC(F)(F)F)c4=O)sc23)c1O[C@H]1CCCNC1 [Example 291, 3-[2-[[2,6-dioxo-3-(2,2,2-trifluoroethyl)pyrimidin-1-yl]methyl]thieno[3,2-b]pyridin-7-yl]-5-methyl-4-[[(3S)-3-piperidyl]oxy]benzoic acid]	< 1000 nM
Cc1cc(Cl)cc(-c2ccnc3cc(CN4C(=O)C5CC5C4=O)sc23)c1OC1CN2CCC1CC2 (stereo not shown) [Example 319, 3-[[7-(5-chloro-3-methyl-2-quinuclidin-3-yloxy-phenyl)thieno[3,2-b]pyridin-2-yl]methyl]-3-azabicyclo[3.1.0]hexane-2,4-dione; 2,2,2-trifluoroacetic acid]	< 1000 nM

Second part, the molecule after the results:

IC50	Molecule
< 1000 nM	Cc1cc([N+](=O)[O-])cc(-c2ccnc3cc(Cn4c(=O)ccn(CC(F)(F)F)c4=O)sc23)c1OC1CCN(C(C)(C)C)CC1 [Example 347, 3-[[7-[2-[(1-tert-butyl-4-piperidyl)oxy]-3-methyl-5-nitro-phenyl]thieno[3,2-b]pyridin-2-yl]methyl]-1-(2,2,2-trifluoroethyl)pyrimidine-2,4-dione]
< 1000 nM	Cc1cc(Cl)cc(-c2ccnc3cc(CN4C(=O)C5CC5C4=O)sc23)c1O[C@@H]1CCNC[C@@H]1C (stereo partly drawn) [Example 324, 3-[[7-[5-chloro-3-methyl-2-[[(3S,4R)-3-methyl-4-piperidyl]oxy]phenyl]thieno[3,2-b]pyridin-2-yl]methyl]-3-azabicyclo[3.1.0]hexane-2,4-dione]
< 1000 nM	CCN1CC[C@@H](Oc2c(C)cc(Cl)cc2-c2ccnc3cc(CN4C(=O)C5CC5C4=O)sc23)[C@@H](C)C1 (stereo partly drawn) [Example 325, 3-[[7-[5-chloro-2-[[(3S,4R)-1-ethyl-3-methyl-4-piperidyl]oxy]-3-methyl-phenyl]thieno[3,2-b]pyridin-2-yl]methyl]-3-azabicyclo[3.1.0]hexane-2,4-dione]
< 1000 nM	Cc1cc(Cl)cc(-c2ncnc3cc(CN4C(=O)C5CC5C4=O)sc23)c1O[C@@H]1CCNC[C@H]1F (stereo partly drawn) [Example 309, 3-[[4-[5-chloro-2-[[(3R,4R)-3-fluoro-4-piperidyl]oxy]-3-methyl-phenyl]thieno[3,2-d]pyrimidin-6-yl]methyl]-3-azabicyclo[3.1.0]hexane-2,4-dione dihydrochloride]
< 1000 nM	Cc1cc(Cl)cc(-c2ccnc3cc(CN4C(=O)CC5(CCC5)C4=O)sc23)c1O[C@H]1CCCNC1 [Example 317, 6-[[7-[5-chloro-3-methyl-2-[[(3S)-3-piperidyl]oxy]phenyl]thieno[3,2-b]pyridin-2-yl]methyl]-6-azaspiro[3.4]octane-5,7-dione; 2,2,2-trifluoroacetic acid]

same assay, conditions: recombinant full-length USP7 62 pM; ubiquitin-rhodamine 100 nM; 30-minute incubation, 1 hour reaction at room temperature; read-out: Potency (USP7 IC50)

Molecule	IC50
Cc1cc(Cl)cc(-c2ccnc3cc(Cn4c(=O)ccn(CC(F)(F)F)c4=O)sc23)c1OC1CCOCC1 [Example 670]	< 1000 nM

same assay, conditions: recombinant full-length USP7 62 pM; ubiquitin-rhodamine 100 nM; 30-minute pre-incubation, 1 hour reaction at room temperature; read-out: Potency (USP7 IC50)

Molecule	IC50
Cc1cc(Cl)cc(-c2ccnc3cc(Cn4c(=O)ccn(C)c4=O)sc23)c1O[C@H]1CCN(C)C[C@@H]1F [Example 472, 3-[[7-[5-chloro-2-[[(3S,4S)-3-fluoro-1-methyl-4-piperidyl]oxy]-3-methyl-phenyl]thieno[3,2-b]pyridin-2-yl]methyl]-1-methyl-pyrimidine-2,4-dione; 2,2,2-trifluoroacetic acid]	< 1000 nM
Cc1cc(Cl)cc(-c2ccncc2CCCN2C(=O)CCC2=O)c1OC1CCNCC1 [Example 411, 1-[3-[4-[5-chloro-3-methyl-2-(4-piperidyloxy)phenyl]-3-pyridyl]propyl]pyrrolidine-2,5-dione; 2,2,2-trifluoroacetic acid]	1000 to 10000 nM
Cc1cc(Cl)cc(-c2ccnc(CCCN3C(=O)CCC3=O)c2)c1OC1CCNCC1 [Example 410, 1-[3-[4-[5-chloro-3-methyl-2-(4-piperidyloxy)phenyl]-2-pyridyl]propyl]pyrrolidine-2,5-dione; 2,2,2-trifluoroacetic acid]	1000 to 10000 nM
Cc1cc(Cl)cc(-c2ncnc3cc(Cn4c(=O)ccn(CC(F)(F)F)c4=O)sc23)c1O[C@H]1CCCNC1 [Example 517]	< 1000 nM
Cc1cc(Cl)cc(-c2ccnc3cc(Cn4c(=O)ccn(C)c4=O)sc23)c1O[C@@H]1C[C@@H]2COCCN2C1 [Example 502, 3-[[7-[2-[[(7R,8aR)-3,4,6,7,8,8a-hexahydro-1H-pyrrolo[2,1-c][1,4]oxazin-7-yl]oxy]-5-chloro-3-methyl-phenyl]thieno[3,2-b]pyridin-2-yl]methyl]-1-methyl-pyrimidine-2,4-dione]	< 1000 nM
Cc1cc(Cl)cc(-c2ccnc3cc(Cn4c(=O)ccn(CC(F)(F)F)c4=O)sc23)c1O[C@@H]1CNC[C@@H]1C [Example 566, 3-[[7-[5-chloro-3-methyl-2-[(3S,4S)-4-methylpyrrolidin-3-yl]oxy-phenyl]thieno[3,2-b]pyridin-2-yl]methyl]-1-(2,2,2-trifluoroethyl)pyrimidine-2,4-dione]	< 1000 nM
Cc1cc(Cl)cc(-c2ccnc3cc(CN4C(=O)CCC4=O)sc23)c1OC1CC(C)(N)C1 (stereo not shown) [Example 443, 1-[[7-[2-(3-amino-3-methyl-cyclobutoxy)-5-chloro-3-methyl-phenyl]thieno[3,2-b]]pyridin-2-yl]methyl]pyrrolidine-2,5-dione dihydrochloride]	< 1000 nM
